# Experimental data from US8962558B2, “Methods for reducing GnRH-positive tumor cell proliferation using the GnRH antagonist IN3” (priority 1997, dated 2015).
# Square brackets hold non-standard residues; d marks the D form. Peptide text beside a SMILES is read from it. * marks the point of attachment. Tyr(3-I) = N[C@@H](Cc1ccc(O)c(I)c1)C(=O)O; pGlu = O=C1CC[C@@H](C(=O)O)N1; azaGly = NNC(=O)O; tBu = CC(C)(C)*
# Columns and labels:
# [1] = molecular target: T1, LHRH receptors in BLM melanoma cells (Homo sapiens, UniProt P30968); assay: 125I-LHRH-A binding to BLM cell membranes
# T1 construct: endogenous in cells; host or cells: BLM human melanoma cells (membranes)
# T1 sequence (P30968 1-328): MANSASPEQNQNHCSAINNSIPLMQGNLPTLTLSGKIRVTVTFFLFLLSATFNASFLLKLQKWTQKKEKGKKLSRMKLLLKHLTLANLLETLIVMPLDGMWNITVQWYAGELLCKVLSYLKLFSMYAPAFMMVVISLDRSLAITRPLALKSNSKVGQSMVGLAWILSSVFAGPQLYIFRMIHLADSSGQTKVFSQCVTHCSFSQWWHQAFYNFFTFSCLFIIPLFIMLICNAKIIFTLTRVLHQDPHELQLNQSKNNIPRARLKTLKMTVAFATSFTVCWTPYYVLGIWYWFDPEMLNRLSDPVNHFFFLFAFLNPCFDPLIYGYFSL
# Method: (§1) GnRH receptors in melanoma cells have been analyzed also in terms of binding parameters.
# (§2) Binding characteristics were evaluated from displacement curves as described in Materials and Methods.
# [2] = molecular target: T2, LHRH receptors in Me15392 melanoma cells (Homo sapiens, UniProt P30968); assay: 125I-LHRH-A binding to Me15392 cell membranes
# T2 construct: endogenous in cells; host or cells: Me15392 human melanoma cells (membranes)
# T2 sequence (P30968 1-328): T1 sequence (P30968 1-328)
# Method: as §1, §2
# [3] = molecular target: T3, LHRH receptors in rat pituitaries (Rattus norvegicus, UniProt P30969); assay: 125I-LHRH-A binding to rat pituitaries (control)
# T3 construct: from tissue; host or cells: rat pituitary
# T3 sequence (P30969 1-327): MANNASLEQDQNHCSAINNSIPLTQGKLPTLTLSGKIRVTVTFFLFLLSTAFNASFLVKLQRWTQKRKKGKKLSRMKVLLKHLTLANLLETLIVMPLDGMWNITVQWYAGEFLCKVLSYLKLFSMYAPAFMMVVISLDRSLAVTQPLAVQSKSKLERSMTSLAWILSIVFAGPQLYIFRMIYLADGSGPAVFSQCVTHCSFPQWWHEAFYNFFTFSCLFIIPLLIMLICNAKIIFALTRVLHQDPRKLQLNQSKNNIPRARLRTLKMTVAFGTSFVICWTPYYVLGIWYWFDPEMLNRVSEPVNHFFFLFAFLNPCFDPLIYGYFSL
# Method: as §1, §2
# [4] = test system: malignant gliomas U-87MG and U-373MG; assay: In vivo study with tumor-implanted nude mice (Example 4); settings: daily dosages
# Method: An effect of the treatment of tumor-implanted nude mice (Pinski et al., supra) each with one of the GnRH agonists Buserelin, Triptorelin, Goserelin, and Leuprorelin and each with one of the GnRH antagonists Cetrorelix® (SB-75), Antarelix®, Antide®, and Ramorelix® on the growth of malignant gliomas U-87MG and U-373MG was carried out using daily dosages and controls in nude mice using analysis techniques described for the determination of the efficacy of similar peptides in Pinski et al., supra.
# [5] = test system: human glioblastoma cell lines U-87MG or U-373MG, Kaposi sarcoma cell lines KSY-1 or KS-SLK, malignant melanoma cell line MV3 or BLM, medulloblastoma cell line …; assay: Proliferation assay on cell cultures (Example 3); assay type: cell-based; settings: cell lines of Example 3 treated with the substance
# Method: A human cell line, such as the well known human glioblastoma cell lines U-87MG or U-373MG (Pinski et al., supra), or a human cell line such as the well known Kaposi sarcoma cell lines KSY-1 or KS-SLK (Parkash et al., 1996, New England Journal of Medicine, 335, 17, 1261-1269), or a human cell line such as the well known human malignant melanoma cell line MV3 or BLM (Goldbrunner, R. H., et al., 1996, Anticancer Research 16 (6B), 3679-87), or a human medulloblastoma cell line such as the well known cell line Daoy or D283 MED (Stockhammer et al., 1995, J. Neurosurgery, 83, 672-681), or human meningeoma cell cultures (Boyle-Wash, E., et al., 1995, Journal of Endocrinology, 145, 155-161), are cultured as previously described for the above-mentioned cell lines and then treated with a concentration of the GnRH agonist Triptorelin®, GnRH antagonist SB-75 (Cetrorelix®) or GnRH antagonist Ramorelix®. […]
# In another embodiment, the above-mentioned cell lines are treated as described by Emons, G., et al., 1993, supra, and Irmer, G., 1995, supra, with a concentration of the GnRH peptide antagonist Ac-D-Nal(2)-D-4-ClPhe-D-Pal-Ser-1-MePal-D-IsopropylLys-Leu-IsopropylLys-Pro-D-AlaNH2 (also known as Ant 135-25; the Mepal portion is known as 1-Methyl-3-[3′-pyridyl]-alanine), Teverelix (also known as Antarelix®), Cetrorelix (also known as Cetrotide®), Abarelix (also known as Plenaxis®), D-63153 (also known as Ozarelix®), acyline, azaline B, antide (also known as Iturelix®), Degarelix (FE200486), Ganirelix, Nal-Glu, Orntide (also known as Ornirelix®), Elagolix, or with antagonist peptidomimetic ((2S)-2-[5-[2-(2-azabicyclo[2,2,2]oct-2-yl)-1,1-dimethyl-2-oxoethyl]-2-(3,5-dimethylphenyl)-1H-indol-3-yl]-N-(2-pyridin-4-ylethyl-)propan-1-amine (also known as “IN3”).
# In another embodiment, the cell lines used above were each additionally treated with a second GnRH antagonist, namely one of the GnRH antagonists Cetrorelix®, Ant 135-25, IN3, degarelix, Antarelix®, Antide®, and Ramorelix® or alternatively with one of the GnRH antagonists that have been disclosed in U.S. Pat. Nos. 6,939,88, 6,200,957, 5,296,468, 4,851,385, 7,361,633, 7,288,517, WO/2009/106597 or PCT/EP2009/052326, U.S. Pat. Nos. 5,480,969, 5,198,533, or UK Patent GB 2 246782 B, wherein these additional treatment procedures were carried out in a manner similar to those reported in Emons et al., supra, using SB 75 (Cetrorelix®). […]
# [6] = test system: ovarian carcinoma cell lines; settings: 10^−5 M, day 6; cited from earlier work
# [7] = test system: small cell lung carcinoma cell lines NCI-H1688, NCI-H1417, NCI-H1672, NCI-H1836, DMS-79, DM-553, DMS-114, SW-1271, NCI-H2227, NCI-HI1963, SHP-77 and H-69 AR; assay: Proliferation assay on small cell lung carcinoma cell lines (Example 3); assay type: cell-based, human; settings: small cell lung carcinoma cell lines treated with the substance
# Method: In another embodiment, the small cell lung carcinoma cell lines NCI-H1688, NCI-H1417, NCI-H1672, NCI-H1836, DMS-79, DM-553, DMS-114, SW-1271, NCI-H2227, NCI-HI1963 and SHP-77 in addition to the multidrug-resistant small cell lung carcinoma cell line H-69 AR, are cultured as described above and then treated as described by Emons, G., et al., 1993, supra, and Irmer, G., 1995, supra, with various concentrations of the GnRH agonists (D-Lys6)-GnRH, Lutrelin, Histrelin, Nafarelin, Azagly-Nafarelin, Deslorelin, Cystorelin, Decapeptyl, Gonadorelin, GnRH, D-Lys(6)-GnRH II, Lamprey GnRH II, (D-Lys6)-Lamprey GnRH, (D-Lys6)-Lamprey GnRH II and Lamprey GnRH III.
# In another embodiment, the small cell lung carcinoma cell lines NCI-H1688, NCI-H1417, NCI-H1672, NCI-H1836, DMS-79, DM-553, DMS-114, SW-1271, NCI-H2227, NCI-HI1963 and SHP-77 in addition to the multidrug-resistant small cell lung carcinoma cell line H-69 AR, are cultured as described above for the above-mentioned cell lines, and then treated as described by Emons, G., et al., 1993, supra, and Irmer, G., 1995, supra, with a concentration of the GnRH antagonist Cetrorelix (also known as Cetrotide®) or with a GnRH peptide antagonist Ac-D-Nal(2)-D-4-ClPhe-D-Pal-Ser-1-MePal-D-IsopropylLys-Leu-IsopropylLys-Pro-D-AlaNH2 wherein Mepal is 1-Methyl-3-[3′-pyridyl]-alanine or Ant 135-25 (also known as Ac-D-Nal(2)-D-4-Cl-Phe-D-Pal-Ser-1-MePal-D-IsopropylLys-Leu-IsopropylLys-Pro-D-AlaNH2), Teverelix (also known as Antarelix®), Cetrorelix (also known as Cetrotide®), Abarelix (also known as Plenaxis®), D-63153 (also known as Ozarelix®), acyline, azaline B, antide (also known as Iturelix®), Degarelix (FE200486), Ganirelix, Nal-Glu, Orntide (also known as Ornirelix®) or with antagonist peptidomimetic ((2S)-2-[5-[2-(2-azabicyclo[2,2,2]oct-2-yl)-1,1-dimethyl-2-oxoethyl]-2-(3,5-dimethylphenyl)-1H-indol-3-yl]-N-(2-pyridin-4-ylethyl-)propan-1-amine (also known as “IN3”).
# [8] = test system: BLM human melanoma cells; assay: Proliferation of BLM human melanoma cells (Example 20); assay type: cell-based; settings: 5×10^−5M
# Source text: The effects of the GnRH agonist (D-Lys6)-GnRH, Gossypol, the combination of D-Lys6-GnRH and racemic Gossypol, and a conjugate of (D-Lys6)-GnRH, and racemic Gossypol alone on the proliferation of BLM human melanoma cells are depicted in FIG. 20 (A), (B) and (C), respectively. Results are expressed as mean cell number per plate±SE. *, p<0.05 vs. control (C).
^125I-LHRH-A binding Capacity [1],^125I-LHRH-A binding Capacity [2],^125I-LHRH-A binding Capacity [3],Compound,growth of malignant gliomas [4],anti-proliferative effects in tumor cells [5],inhibition of proliferation [6] [%],anti-proliferative effects in tumor cells [7],inhibition of cellular proliferation versus controls [8] [%]
150-200 fmoles/mg protein,200-250 fmoles/mg protein,70-100 fmoles/mg protein,CC(C)C[C@H](NC(=O)[C@@H](COC(C)(C)C)NC(=O)[C@H](Cc1ccc(O)c(I)c1)NC(=O)[C@H](CO)NC(=O)[C@H](Cc1c[nH]c2ccccc12)NC(=O)[C@H](Cc1c[nH]cn1)NC(=O)[C@@H]1CCC(=O)N1)C(=O)N[C@@H](CCCNC(=N)N)C(=O)N1CCC[C@H]1C(=O)NNC(N)=O [^125I-LHRH-A] ([pGlu]HWS[Tyr(3-I)][dS](tBu)LRP[azaGly]-NH2; C-terminus assumed),,,,,
,,,CC(C)C[C@H](NC(=O)[C@@H](Cc1c[nH]c2ccccc12)NC(=O)[C@H](Cc1ccc(O)cc1)NC(=O)[C@H](CO)NC(=O)[C@H](Cc1c[nH]c2ccccc12)NC(=O)[C@H](Cc1c[nH]cn1)NC(=O)[C@@H]1CCC(=O)N1)C(=O)N[C@@H](CCCNC(=N)N)C(=O)N1CCC[C@H]1C(=O)NCC(N)=O [Triptorelin®],Significant growth-inhibiting effects,Significant anti-proliferative effects,40,,
,,,(D-Lys6)-GnRH,,Significant anti-proliferative effects,,Significant anti-proliferative effects,39
